Reference: US20180207148A1 (priority 2015, published 2018)
Like-named read-outs stand apart in the source and are kept apart here.

What was measured:
clinical [1] = details: human, in vivo
clinical [2] = details: human, in vivo, oral
Description: No premedication was allowed during this treatment sequence.

[3] = Paclitaxel pharmacokinetics in dogs after single oral dose with Compound A; details: dog, in vivo
[4] = human, in vivo
Description: (§1) A 2-part study was conducted in subjects with advanced/metastatic or recurrent gastric cancer. […] A total of 56 subjects enrolled in this study: 10 subjects with advanced malignant tumors in Part 1 and 46 subjects with advanced gastric cancer in Part 2.

[5] = dogs; for CL/F: paclitaxel 6 mg/kg with Compound A 3 mg/kg, single oral dose
[6] = for CL/F: po
in vivo = details: dog, po, 6 mg/kg, paclitaxel 6 mg/kg with Compound A 3 mg/kg, single oral dose; for AUC(0-t): AUClast; for half-life: t1/2, dogs
[7] = Paclitaxel pharmacokinetics in rats after single oral dose with Compound A; details: rat, in vivo
clinical [8] = details: human, in vivo; remark: listed apart in the source
Description: as §1

[9] = tested on: transplanted human tumor cell lines; assay: Seven in vivo experiments, human tumor transplant cell lines in mice (overall); set-up: species or system mouse; details: paclitaxel administered IP or IV, compared with oral combination
Description: In these studies, tumor inhibition rate (IR %) was calculated as ([1-relative tumor growth in treated group/relative tumor growth in control group]×100). Tumor regression was calculated as (Mean Tumor WeightEnd of treatment/Mean tumor WeightBeginning of treatment)×100. Therefore, a value <100% for tumor regression indicates a decrease in tumor weight over the course of the study and a value >100% indicates an increase in tumor weight. Tumor growth delay was calculated as the median number of days to reach two tumor mass doublings.

[10] = Cardiovascular safety pharmacology in dogs; type: in vivo, dog; details: Compound A administered alone
[11] = CNS safety pharmacology study in rats; type: in vivo, rat; details: Compound A administered alone

Molecule `CC(=O)O[C@H]1C(=O)[C@@]2(C)[C@H]([C@H](OC(=O)c3ccccc3)[C@]3(O)C[C@H](OC(=O)[C@H](O)[C@@H](NC(=O)c4ccccc4)c4ccccc4)C(C)=C1C3(C)C)[C@]1(OC(C)=O)CO[C@@H]1C[C@@H]2O` [Paclitaxel, 5,20-Epoxy-1,2,4,7,10-13-hexahydroxytax-11-en-9-one-4,10-diacetate 2-benzoate 13-ester with (2R,3S)—N-benzoyl-3-phenylisoserine] has a half-life (clinical [1]) of 19.9 to 32.1 h, an AUC(0-inf) (clinical [1]; po, 60 mg/m2) of 727 ng·h/mL and an AUC(0-t) (clinical [1]; po, 60 mg/m2) of 584 ng·h/mL. The Cmax (clinical [1]; po, 60 mg/m2) was 150 ng/mL, the MRT inf (clinical [1]; po, 60 mg/m2) was 28.6 h and the Vd/F (clinical [1]; po, 60 mg/m2) was 9130 L. For the same molecule, the half-life (clinical [1]; po, 60 mg/m2) was 32.1 h, the AUC(0-inf) (clinical [1]; po, 120 mg/m2) was 1840 ng·h/mL and the AUC(0-t) (clinical [1]; po, 120 mg/m2) was 1610 ng·h/mL. It also gave a CL renal (clinical [1]; po, 120 mg/m2) of 50 mL/min, an MRT inf (clinical [1]; po, 120 mg/m2) of 17 h and a Vd/F (clinical [1]; po, 120 mg/m2) of 4040 L. It also gave a half-life (clinical [1]; po, 120 mg/m2) of 22 h, an AUC(0-inf) (clinical [1]; po, 180 mg/m2) of 1980 ng·h/mL and an AUC(0-t) (clinical [1]; po, 180 mg/m2) of 1670 ng·h/mL. It also gave a CL renal (clinical [1]; po, 180 mg/m2) of 30 mL/min, a Cmax (clinical [1]; po, 180 mg/m2) of 432 ng/mL and an MRT inf (clinical [1]; po, 180 mg/m2) of 21.9 h. The Vd/F (clinical [1]; po, 180 mg/m2) was 6030 L, the half-life (clinical [1]; po, 180 mg/m2) was 24.4 h and the AUC(0-inf) (clinical [1]; po, 240 mg/m2) was 2970 ng·h/mL. For the same molecule, the AUC(0-t) (clinical [1]; po, 240 mg/m2) was 2550 ng·h/mL, the CL renal (clinical [1]; po, 240 mg/m2) was 40 mL/min and the Cmax (clinical [1]; po, 240 mg/m2) was 510 ng/mL. For the same molecule, the MRT inf (clinical [1]; po, 240 mg/m2) was 23.4 h, the Vd/F (clinical [1]; po, 240 mg/m2) was 6010 L and the half-life (clinical [1]; po, 240 mg/m2) was 25.7 h. The AUC(0-inf) (clinical [1]; po, 300 mg/m2) was 3480 ng·h/mL, the AUC(0-t) (clinical [1]; po, 300 mg/m2) was 3140 ng·h/mL and the CL renal (clinical [1]; po, 300 mg/m2) was 33.3 mL/min. It also gave a Cmax (clinical [1]; po, 300 mg/m2) of 920 ng/mL, an MRT inf (clinical [1]; po, 300 mg/m2) of 16.2 h and a Vd/F (clinical [1]; po, 300 mg/m2) of 4930 L. It also gave a half-life (clinical [1]; po, 300 mg/m2) of 21.2 h, an AUC(0-inf) (clinical [1]; po, 360 mg/m2) of 2850 ng·h/mL and an AUC(0-t) (clinical [1]; po, 360 mg/m2) of 2510 ng·h/mL. It also gave a CL renal (clinical [1]; po, 360 mg/m2) of 122 mL/min, an MRT inf (clinical [1]; po, 360 mg/m2) of 18.7 h and a Vd/F (clinical [1]; po, 360 mg/m2) of 6840 L. The half-life (clinical [1]; po, 360 mg/m2) was 20.8 h, the AUC(0-inf) (clinical [1]; po, 420 mg/m2) was 3730 ng·h/mL and the AUC(0-t) (clinical [1]; po, 420 mg/m2) was 3410 ng·h/mL. It also gave a CL renal (clinical [1]; po, 420 mg/m2) of 48.3 mL/min, an MRT inf (clinical [1]; po, 420 mg/m2) of 14.7 h and a Vd/F (clinical [1]; po, 420 mg/m2) of 7180 L. For the same molecule, the half-life (clinical [1]; po, 420 mg/m2) was 19.9 h, the bioavailability (clinical [2]) was ~13.4% and the AUC(0-t) ([3]; 2 mg/kg) was 413 ng·h/mL. It also gave a Tmax ([3]; 2 mg/kg) of 0.5 h, an AUC(0-t) ([3]; 4 mg/kg) of 1330 ng·h/mL and a Tmax ([3]; 4 mg/kg) of 0.7 h. For the same molecule, the AUC(0-t) ([3]; 6 mg/kg) was 2120 ng·h/mL, the Tmax ([3]; 6 mg/kg) was 0.5 h and the “Overall exposure on Day 2, higher than Day 1” value [4] was 20-30%. The “AUC, fasted group compared to fed group” value [5] was ~2 fold, the “Cmax, fasted group compared to fed group” value [5] was ~2 fold and the CL/F ([5]; Fasted) was 4.2 ± 1.2 L/h. For the same molecule, the CL/F ([5]; Fed) was 6.4 ± 1.3 L/h, the “Mean apparent clearance (CL/F)” value ([6]; human, in vivo) was “up to 244.9 L/h” and the CL/F ([6]; human, in vivo, 60 mg/m2) was 178.4 L/h. The CL/F ([6]; human, in vivo, 180 mg/m2) was 173.4 L/h, the CL/F ([6]; human, in vivo, 240 mg/m2) was 147.6 L/h and the CL/F ([6]; human, in vivo, 360 mg/m2) was 228.7 L/h. For the same molecule, the CL/F ([6]; human, in vivo, 420 mg/m2) was 244.9 L/h, the MTD ([6]; oral paclitaxel 60 to 420 mg/m^2 on days 1, 8 and 15 of 28-day cycle with Compound A) was “not reached” and the overall toxicity profile ([6]; orally administered in combination with Compound A, neutropenia the adverse event associated with discontinuation) was “consistent with that of paclitaxel”. For the same molecule, the AUC(0-t) (in vivo; dogs, Fasted) was 1600 ± 416 ng·h/mL, the AUC(0-t) (in vivo; dogs, Fed) was 849 ± 120 ng·h/mL and the Cmax (in vivo; Cmax, dogs, Fed) was 299 ± 54.6 ng/mL. It also gave a Tmax (in vivo; dogs, Fasted) of 0.5 h, a Tmax (in vivo; dogs, Fed) of 0.7 ± 0.2 h and a Vd/F (in vivo; dogs, Fasted) of 57.9 ± 17.4 L. For the same molecule, the Vd/F (in vivo; dogs, Fed) was 88 ± 19.6 L, the half-life (in vivo; Fasted) was 9.4 ± 0.3 h and the half-life (in vivo; Fed) was 9.9 ± 2.7 h. It also gave an AUC(0-t) ([7]; 5 mg/kg) of 333 ng·h/mL, a Cmax ([7]; 5 mg/kg) of 103 ng/mL and a Tmax ([7]; 5 mg/kg) of 0.6 h. The AUC(0-t) ([7]; 10 mg/kg) was 1030 ng·h/mL, the Cmax ([7]; 10 mg/kg) was 356 ng/mL and the Tmax ([7]; 10 mg/kg) was 0.7 h. It also gave an AUC(0-t) ([7]; 20 mg/kg) of 3010 ng·h/mL, a Cmax ([7]; 20 mg/kg) of 852 ng/mL and a Tmax ([7]; 20 mg/kg) of 1.2 h. For the same molecule, the AUC(0-t) ([7]; 30 mg/kg) was 6640 ng·h/mL, the Cmax ([7]; 30 mg/kg) was 1760 ng/mL and the Tmax ([7]; 30 mg/kg) was 1.2 h. It also gave a half-life ([7]; 30 mg/kg) of 6 h, an AUC(0-t) ([7]; 40 mg/kg) of 11100 ng·h/mL and a Cmax ([7]; 40 mg/kg) of 2490 ng/mL. For the same molecule, the Tmax ([7]; 40 mg/kg) was 1.5 h, the half-life ([7]; 40 mg/kg) was 5.5 h and the AUC(0-t) ([7]; 50 mg/kg) was 13100 ng·h/mL. The Cmax ([7]; 50 mg/kg) was 3070 ng/mL, the half-life ([7]; 50 mg/kg) was 5.3 h and the half-life (clinical [8]; oral) was 18.3 to 19.7 h. For the same molecule, the AUC(0-t) (clinical [8]; oral, AUC0-24, range across dose levels, Day 1) was 611 to 894 ng·h/mL, the AUC(0-t) (clinical [8]; oral, AUC0-24, range across dose levels, Day 2) was 735 to 1080 ng·h/mL and the Cmax (clinical [8]; oral, Cmax, range across dose levels, Day 1) was 202 to 280 ng/mL. For the same molecule, the Cmax (clinical [8]; oral, Cmax, range across dose levels, Day 2) was 159 to 315 ng/mL, the Cmax (clinical [8]; po, 90 mg/m2, Paclitaxel Cmax, Mean (SD), 90 mg/m^2, Day 1, N 2, two consecutive daily oral doses) was 202 ng/mL and the Cmax (clinical [8]; po, 90 mg/m2, Paclitaxel Cmax, Mean (SD), 90 mg/m^2, Day 2, N 2, two consecutive daily oral doses) was 315 ng/mL. The Cmax (clinical [8]; po, 120 mg/m2, Paclitaxel Cmax, Mean (SD), 120 mg/m^2, Day 2, N 3, two consecutive daily oral doses) was 159 ng/mL, the AUC(0-t) (clinical [8]; po, 150 mg/m2) was 894 ng·h/mL and the Cmax (clinical [8]; po, 150 mg/m2) was 251 ng/mL. For the same molecule, the Cmax (clinical [8]; po, 150 mg/m2, Paclitaxel Cmax, Mean (SD), 150 mg/m^2, Day 2, N 3, two consecutive daily oral doses) was 276 ng/mL and the “activity against transplanted human tumor cell lines” value [9] was “generally less active”.

In the case of `COc1cc2c(cc1OC)CN(CCc1ccc(-n3nnc(-c4cc(OC)c(OC)cc4NC(=O)c4cc(=O)c5ccccc5o4)n3)cc1)CC2.CS(=O)(=O)O.O` [Compound A], the “reductions in PR and QRS intervals” value [10] is reported as “absence” and the “reductions in body temperature” value [11] is reported as “absence”.
